Experimental data as given in ChEMBL document CHEMBL4811216, “Chemotherapy for human schistosomiasis: how far have we come? What's new? Where do we go from here?” (RSC Med Chem, 2020).
Blank lines part the entries; values can stand above or below the compound they belong to.

Experiments:
Schistosoma mansoni [1] = experiment: Antischistosomal activity against Schistosoma mansoni Liberian infected in NMRI mouse assessed as worm burden reduction at 100 mg/kg, po measured after 14 days relative to control; type: functional; design: scale not given: the % may be the effect or the level left; details: time 14 day
Schistosoma haematobium [2] = experiment: Antischistosomal activity against Schistosoma haematobium Egyptian infected in NMRI mouse assessed as worm burden reduction at 200 mg/kg, po measured after 14 days; type: functional; design: scale not given: the % may be the effect or the level left; details: time 14 day
Schistosoma japonicum [3] = experiment: Antischistosomal activity against juvenile Schistosoma japonicum assessed as reduction in worm vitality at 25 uM incubated for 72 hrs relative to control; type: functional; design: scale not given: the % may be the effect or the level left
Schistosoma japonicum [4] = experiment: Antischistosomal activity against adult Schistosoma japonicum assessed as reduction in worm vitality at >10 uM incubated for 48 hrs relative to control; type: functional; design: scale not given: the % may be the effect or the level left; details: dose microM >10
Schistosoma japonicum [5] = experiment: Antischistosomal activity against Schistosoma japonicum infected in ICR mouse assessed as total worm reduction at 250 mg/kg, po administered as single dose relative to control; type: functional; design: scale not given: the % may be the effect or the level left
Schistosoma japonicum [6] = experiment: Antischistosomal activity against Schistosoma japonicum assessed as worm mortality at 10 ug/ml incubated for 72 hrs by microscopic method relative to control; type: functional; details: dose 10 µg/ml
Schistosoma mansoni [7] = experiment: Schistosomicidal-activity against adult Schistosoma mansoni incubated overnight followed by replacement of medium and measured on day 5 by stereomicroscopy; type: functional, organism-based; details: 120 h
Schistosoma mansoni [8] = experiment: Antischistosomal activity against Schistosoma mansoni infected in mouse assessed as worm burden reduction at 200 mg/kg, po administered as single dose and measured after 17 to 21 days relative to control; type: functional; design: scale not given: the % may be the effect or the level left; details: time 17-21 day
Schistosoma mansoni [9] = experiment: Antischistosomal activity against adult Schistosoma mansoni measured after 72 hrs by microscopic method; type: functional, organism-based
Schistosoma haematobium [10] = experiment: Antischistosomal activity against adult Schistosoma haematobium assessed as reduction in worm viability at 100 uM measured after 4 hrs by microscopic method relative to control; type: functional
Schistosoma haematobium [11] = experiment: Antischistosomal activity against adult Schistosoma haematobium assessed as reduction in worm viability at 100 uM measured after 48 hrs by microscopic method relative to control; type: functional
L6 = experiment: Cytotoxicity against rat L6 cells measured after 72 hrs by alamar blue assay; type: functional, cell-based; details: L6, 72 h
Schistosoma mansoni [12] = experiment: Antischistosomal activity against Schistosoma mansoni infected in NMRI mouse assessed as worm burden reduction at 100 mg/kg, po administered as single dose relative to control; type: functional; design: scale not given: the % may be the effect or the level left
Schistosoma mansoni [13] = experiment: Antischistosomal activity against Schistosoma mansoni BH infected in Balb/c mouse assessed as reduction in worm burden at 400 mg/kg, po measurement after 2 weeks; type: functional; design: scale not given: the % may be the effect or the level left
Schistosoma mansoni [14] = experiment: Antischistosomal activity against Schistosoma mansoni LE assessed as worm mortality at 100 ug/ml measured after 72 hrs by inverted microscopic method relative to control; type: functional
Schistosoma mansoni [15] = experiment: Antischistosomal activity against Schistosoma mansoni LE assessed as worm mortality at 100 ug/ml measured after 144 hrs by inverted microscopic method relative to control; type: functional; details: dose 100 µg/ml
Schistosoma mansoni [16] = experiment: microbe, parasite or virus in culture; details: 72 h
Description: Antischistosomal activity against Schistosoma mansoni incubated for 72 hrs by inverted microscopic method

Schistosoma mansoni [17] = experiment: microbe, parasite or virus in culture; details: Liberian, 72 h
Description: Antischistosomal activity against Schistosoma mansoni Liberian NTS incubated for 72 hrs by microscopic method

Schistosoma mansoni [18] = experiment: Antischistosomal activity against Schistosoma mansoni Liberian NTS at 10 uM measured after 24 hrs relative to control; type: functional
Schistosoma mansoni [19] = experiment: Antischistosomal activity against adult Schistosoma mansoni Liberian at 10 uM measured after 24 hrs relative to control; type: functional
Schistosoma mansoni [20] = experiment: Antischistosomal activity against adult Schistosoma mansoni Liberian at 10 uM measured after 48 hrs relative to control; type: functional
Schistosoma haematobium [21] = experiment: Antischistosomal activity against Schistosoma haematobium at 10 uM measured after 72 hrs relative to control; type: functional

SMILES: OC(c1cc(-c2ccccc2)nc2c(Cl)cc(Cl)cc12)C1CCCCN1 (stereo not drawn)
Activity (Schistosoma mansoni [1]): 87%
Activity (Schistosoma haematobium [2]): 100%

SMILES: O=C(C1CCCCC1)N1CC(=O)N2CCc3c(Br)cccc3C2C1 (stereo not drawn)
Activity (Schistosoma japonicum [3]): <10%
Activity (Schistosoma japonicum [4]): 100%
Activity (Schistosoma japonicum [5]): 54.3%

SMILES: OC(CN1CCCC1)Cn1c2ccc(Cl)cc2c2cc(Cl)ccc21 (stereo not drawn)
Activity (Schistosoma japonicum [6]): 100%

SMILES: O=C(C1CCCCC1)N1CC(=O)N2CCc3sccc3C2C1 (stereo not drawn)
EC50 (Schistosoma mansoni [7]): 900 nM

SMILES: NC(=O)c1nc(-c2ccc(C(F)(F)F)c(F)c2)cnc1Nc1cnc(OCCCN2CCCCC2)nc1
Activity (Schistosoma mansoni [8]): 37.6%

IC50 (Schistosoma mansoni [9]): 11100 nM
SMILES: CC(C)N(Cc1ccccc1)CC1CCc2cc(CCl)c([N+](=O)[O-])cc2N1 (stereo not drawn)
Activity (Schistosoma haematobium [10]): 75%
Activity (Schistosoma haematobium [11]): 100%
IC50 (L6): > 73000 nM
Activity (Schistosoma mansoni [12]): 76.1%

SMILES: COc1cc(O)ccc1C(=O)/C=C/c1ccccc1
Activity (Schistosoma mansoni [13]): 31.8%

SMILES: OC(CN1CCCCC1)Cn1c2ccc(Cl)cc2c2cc(Cl)ccc21 (stereo not drawn)
Activity (Schistosoma japonicum [6]): 100%

SMILES: COc1ccc(-c2cs/c(=N/N=C/CN3C(=O)c4ccccc4C3=O)[nH]2)cc1
mortality at 100 µg/mL (Schistosoma mansoni [14]): 60%
Activity (Schistosoma mansoni [15]): 100%

IC50 (Schistosoma mansoni [16]): 3000 nM
IC50 (Schistosoma mansoni [17]): 800 nM
SMILES: CN1CCN(CCCOc2ncc(Nc3ncc(-c4ccc(C(F)(F)F)c(F)c4)nc3C(N)=O)cn2)CC1
Activity (Schistosoma mansoni [18]): 100%
Activity (Schistosoma mansoni [19]): 70%
Activity (Schistosoma mansoni [20]): 100%
Activity (Schistosoma haematobium [21]): 100%
